The values below come from patent US5407925A (priority 1991, dated 1995).

In one data set the test system is McF-7. The note with it: breast cancer cell line McF-7; cited from earlier work.
Data set [1] has as its system Burkitt's lymphoma cell lines. To be noted: De Fabritiis et al. 1985; cited from earlier work.
The next data set concerns MOLT-4. To be noted: MOLT-4 (a T-cell leukemia); cited from earlier work.
The next data set deals with murine leukemia cells. The note with it: Hilton 1984; cited from earlier work.
Data set [2] concerns human breast cancer cells. The note with it: Kubota et al. 1983; cited from earlier work.
Data set [3] relates to rhabdomyosarcoma cell line. To be noted: cited from earlier work.
Data set [4] deals with TE-671. The note with it: medulloblastoma cell line TE-671; cited from earlier work.
The next data set relates to cells in vitro. The note with it: compared with 4-hydrocyclophosphamide, Redwood et al. 1982; cited from earlier work.
Data set [5] relates to TE-671. Briefly: intrathecal treatment of subarachnoid TE-671 human medulloblastoma xenografts in nude rats. The class given is in vivo, Female athymic nude rats; human medulloblastoma cell line. The note with it: for loss of antigravity strength / increase in median survival: intrathecal.
For data set [6] the following is noted: direct intrathecal administration, 100 uM in the cerebrospinal fluid; cited from earlier work.
Data set [7] can be described thus: clinical evidence of toxicity of intrathecal treatment in tumor-bearing nude rats. To be noted: either dose (final concentration 100 uM or 250 uM).
Setting [8] is: final concentration 250 uM, p less than 0.01.

As for `O=P1(N(CCCl)CCCl)NC(OO)CCO1` (stereo not shown) [4-HC, 4-hydroperoxycyclophosphamide], the “concentration at which active” value is 9.5 µM in the data set on McF-7, 2.5 µM in the data set with MOLT-4, 8 µM in data set [3] and 12.8 µM in the data set with TE-671 [4]. Also, the activity in vitro result (in data set [1]; with murine leukemia cells; in data set [2]) was “active in vitro” each time. In the data set on cells in vitro, the “toxicity on a molar basis to cells in vitro versus 4-hydrocyclophosphamide” value is on record as “equal toxicity on a molar basis”. Moreover, the “time by which loss of stepping and placing reflexes and ramp climbing ability preceded death” value with TE-671 [5] (both treatment studies (100 uM and 250 uM)) is given as “approximately 3 days”. The “loss of antigravity strength” value with TE-671 [5] (final CSF concentration 100 uM, day 8 after tumor inoculation, p=0.036) is “delay in the loss of antigravity strength”; in the data set with TE-671 [5] (setting [8]), “further delay in the loss of antigravity strength”. Besides, the “increase in median survival” value in the data set with TE-671 [5] (final CSF concentration 100 uM, day 8 after tumor inoculation, p=0.04) is on record as 20%; in the data set with TE-671 [5] (setting [8]) it was 36%. Also, the “histopathology after death: subarachnoid tumor infiltrate” value with TE-671 [5] (sections from all animals, 4-HC-treated and saline-treated control groups, base of the brain to the cauda equina) was “diffuse subarachnoid infiltrate of tumor cells”. The toxicity result in data set [6] was “without producing toxicity”. Further, in data set [7], the “clinical evidence of toxicity” value is on record as “no clinical evidence of toxicity”.
